Source: patent US20230293525A1, “METHODS AND COMPOSITIONS FOR THE TREATMENT OF VIRAL INFECTIONS” (priority 2020, published 2023)

Tested on: minor spliceosome snRNAs including U11, U12, U6atac, and U4atac
Test: qPCR of minor spliceosome snRNAs in HEK 293 cells treated with Tenovin 1
Format: cell-based
Conditions: 10 μM, incubated 24 hours, qPCR normalized to RN7SK, versus DMSO

## CC(=O)Nc1ccc(NC(=S)NC(=O)c2ccc(C(C)(C)C)cc2)cc1 [Tenovin 1]
  levels of minor spliceosome snRNAs U11, U12, U6atac and U4atac (qPCR): successfully downregulates
